According to PubChem BioAssay (NCI):
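1) Cells in 96-well plates. 2) Compound, 48 h, 5 concentrations. 3) Linear interpolation between surrounding doses. 4) Unreached endpoint = highest concentration. Here, GI50 denotes the concentration required for 50% inhibition of growth. The concentration for full growth arrest is given as TGI.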

Tests used:
Experiment in all cases: growth of human tumour cells (NCI), 48 h
786-0 renal = tested on: 786-0 renal
ACHN renal = tested on: ACHN renal
HCC-2998 colon = tested on: HCC-2998 colon
HL-60(TB) leukemia = tested on: HL-60(TB) leukemia
IGROV1 ovarian = tested on: IGROV1 ovarian
OVCAR-3 ovarian = tested on: OVCAR-3 ovarian
OVCAR-5 ovarian = tested on: OVCAR-5 ovarian
SK-OV-3 ovarian = tested on: SK-OV-3 ovarian
UO-31 renal = tested on: UO-31 renal
MDA-MB-435 = tested on: MDA-MB-435

Structure (SMILES)	TGI (786-0 renal) [µM]	TGI (ACHN renal) [µM]	TGI (HCC-2998 colon) [µM]	TGI (HL-60(TB) leukemia) [µM]	TGI (IGROV1 ovarian) [µM]	TGI (OVCAR-3 ovarian) [µM]	TGI (OVCAR-5 ovarian) [µM]	TGI (SK-OV-3 ovarian) [µM]	TGI (UO-31 renal) [µM]	GI50 (786-0 renal) [µM]	GI50 (ACHN renal) [µM]	GI50 (HCC-2998 colon) [µM]	GI50 (HL-60(TB) leukemia) [µM]	GI50 (IGROV1 ovarian) [µM]	GI50 (OVCAR-3 ovarian) [µM]	GI50 (SK-OV-3 ovarian) [µM]	GI50 (UO-31 renal) [µM]	GI50 (MDA-MB-435) [µM]	TGI (MDA-MB-435) [µM]	GI50 (OVCAR-5 ovarian) [µM]
Cc1ccc(C(=O)/C=C/c2ccccc2O)c(C)c1	> 100	> 100	> 100	> 100	> 100	> 100	> 100	> 100	> 100	–	–	–	–	–	–	–	–	–	–	–
N#CCCN(CCC#N)c1ccc(/C=C2\N=C(CN3C(=O)c4ccccc4C3=O)OC2=O)cc1	> 100	> 100	> 100	> 100	> 100	> 100	> 100	> 100	> 100	–	–	–	–	–	–	–	–	–	–	–
CC(=O)c1ccc(NC(=O)/C(Cc2ccccn2)=N/NC(=O)C[N+](C)(C)C)cc1	> 100	> 100	> 100	> 100	> 100	> 100	> 100	> 100	> 100	–	–	–	–	–	–	–	–	–	–	–
CC(C)=[CH][Sb]([Br])([CH]=C(C)C)([CH]=C(C)C)[CH]=C(C)C	> 100	> 100	> 100	24.3	66.3	59.8	–	8.83	> 100	34.4	28.8	26	1.88	5.57	2.44	2.5	35.4	–	–	–
Cc1cccc(C(C)(C)C)c1NC(=O)CCc1n[nH]c(=S)o1	> 100	> 100	> 100	> 100	> 100	> 100	> 100	> 100	> 100	–	–	–	–	–	–	–	–	–	–	–
O=C1C2=C(CC3C(C2)C3(Br)Br)C(=O)C2=C1CC1C(C2)C1(Br)Br (configuration not stated)	> 100	> 100	> 100	> 100	> 100	> 100	> 100	> 100	> 100	–	–	–	–	–	–	–	–	–	–	–
CSc1ccc(/C=C2/C[N+](C)(C)C/C(=C/c3ccc(SC)cc3)C2=O)cc1	26.8	> 100	34	9.82	–	38.3	44	–	> 100	–	–	–	–	–	–	–	–	–	–	–
NCCCNCCSSCCCCS(=O)O	> 100	> 100	> 100	40.7	> 100	44.8	> 100	> 100	> 100	–	–	–	–	–	–	–	–	–	–	–
COc1cc(Cc2cc(OC)c(OC)c(OC)c2)ccc1O	> 100	> 100	> 100	6.55	> 100	52.4	> 100	> 100	> 100	–	–	–	–	–	–	–	–	–	–	–
COc1cc(C(=O)O[C@H](C(N)=O)[C@]2(C)CO2)c2ccccc2c1	17.3	30.9	–	> 100	98.4	45.2	33.1	28	> 100	5.08	15.9	–	40.9	34.6	22.7	14.3	33.7	23.7	53.2	11.5
CCN(CC)C(=O)C/C(C)=N/NC(=O)c1ccncc1	> 100	–	> 100	> 100	> 100	> 100	> 100	> 100	> 100	–	–	–	–	–	–	–	–	–	–	–
CCOC(=O)NC(=O)c1cn(CCCOC(=O)NCCCCCCNC(=O)OCCCn2c(=O)c(C(=O)NC(=O)OCC)cn(C)c2=O)c(=O)n(C)c1=O	> 100	> 100	> 100	> 100	> 100	> 100	> 100	> 100	> 100	–	–	–	–	–	–	–	–	–	–	–
COC(=O)C1=C(c2ccc3c(c2)OCO3)O[C@H](c2ccc3c(c2)OCO3)[C@H]1COC(C)=O	> 100	> 100	> 100	> 100	> 100	> 100	> 100	> 100	> 100	–	–	–	–	–	–	–	–	–	–	–
COC(=O)CSc1n[nH]c(-c2ccc(O)c([N+](=O)[O-])c2)n1	> 100	> 100	> 100	> 100	> 100	> 100	> 100	–	> 100	–	–	–	–	–	–	–	–	–	–	–
COc1ccc(OC)c(/C=C/NC=O)c1	> 100	> 100	> 100	> 100	> 100	> 100	> 100	> 100	> 100	–	–	–	–	–	–	–	–	–	–	–
CC(C)=CC(=O)N1CCN(C(=O)C=C(C)C)CC1	> 100	> 100	> 100	> 100	> 100	> 100	> 100	> 100	> 100	–	–	–	–	–	–	–	–	–	–	–
O=S(O)CCCCSSCCCCSSCCCCS(=O)O	> 100	> 100	> 100	30.6	> 100	> 100	> 100	> 100	> 100	–	–	–	–	–	–	–	–	–	–	–
CCCCCCCCCCCCCCCCOP(=O)(O)Oc1ccc(/C=C\c2ccc(OP(=O)(O)OCCCCCCCCCCCCCCCC)cc2)cc1	> 100	> 100	> 100	53.1	> 100	> 100	> 100	> 100	> 100	–	–	–	–	–	–	–	–	–	–	–
COc1ccc(C(=O)O)c(Cc2cccc3ccccc23)c1	> 100	> 100	> 100	> 100	> 100	> 100	> 100	> 100	> 100	–	–	–	–	–	–	–	–	–	–	–
CNC=O.[O]=[Ge].[O]=[Ge].[O]=[Ge].[O]=[Ge][OH].[O]=[Ge][OH]	> 100	> 100	> 100	> 100	> 100	> 100	> 100	–	> 100	–	–	–	–	–	–	–	–	–	–	–
COc1ccc(C2CC(=O)c3c(O)c(OC)c(OC)c(OC)c3O2)c(O)c1 (configuration not stated)	> 100	58.2	27.2	0.632	39.6	–	93.4	24.8	21.4	0.839	1.2	0.761	0.0459	0.535	–	0.308	1.09	–	–	5.57
